Measured values taken from PubChem BioAssay (NCI).
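Where inhibition never reached the appropriate level, the endpoint shown equals the highest concentration tested. Otherwise, values were interpolated linearly from a five-concentration, 48-hour dose response in 96-well plates. TGI denotes the concentration required for complete inhibition of growth.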

Experiments:
Assay in all cases: NCI anticancer screen, dose series, 48 h
786-0 renal = test system: 786-0 renal
A498 renal = test system: A498 renal
A549 NSCLC = test system: A549 NSCLC
ACHN renal = test system: ACHN renal
BT-549 breast = test system: BT-549 breast
CAKI-1 renal = test system: CAKI-1 renal
CCRF-CEM leukemia = test system: CCRF-CEM leukemia
COLO 205 colon = test system: COLO 205 colon
DU-145 prostate = test system: DU-145 prostate
EKVX NSCLC = test system: EKVX NSCLC
HCC-2998 colon = test system: HCC-2998 colon
HCT-116 colon = test system: HCT-116 colon
HCT-15 colon = test system: HCT-15 colon
HL-60(TB) leukemia = test system: HL-60(TB) leukemia
HOP-62 NSCLC = test system: HOP-62 NSCLC
HOP-92 NSCLC = test system: HOP-92 NSCLC
HS 578T breast = test system: HS 578T breast
HT29 colon = test system: HT29 colon
IGROV1 ovarian = test system: IGROV1 ovarian
K-562 leukemia = test system: K-562 leukemia
KM12 colon = test system: KM12 colon
LOX IMVI melanoma = test system: LOX IMVI melanoma
M14 melanoma = test system: M14 melanoma
MALME-3M melanoma = test system: MALME-3M melanoma
MCF7 breast = test system: MCF7 breast
MDA-MB-231 breast = test system: MDA-MB-231 breast
MDA-MB-435 = test system: MDA-MB-435
MDA-N = test system: MDA-N
MOLT-4 leukemia = test system: MOLT-4 leukemia
NCI-H226 lung = test system: NCI-H226 lung
NCI-H23 lung = test system: NCI-H23 lung
NCI-H460 lung = test system: NCI-H460 lung
NCI-H522 lung = test system: NCI-H522 lung
NCI/ADR-RES ovarian = test system: NCI/ADR-RES ovarian
OVCAR-3 ovarian = test system: OVCAR-3 ovarian
OVCAR-4 ovarian = test system: OVCAR-4 ovarian
OVCAR-5 ovarian = test system: OVCAR-5 ovarian
OVCAR-8 ovarian = test system: OVCAR-8 ovarian
PC-3 prostate = test system: PC-3 prostate
RXF 393 renal = test system: RXF 393 renal
SF-268 CNS = test system: SF-268 CNS
SF-295 CNS = test system: SF-295 CNS
SF-539 CNS = test system: SF-539 CNS
SK-MEL-2 melanoma = test system: SK-MEL-2 melanoma
SK-MEL-28 melanoma = test system: SK-MEL-28 melanoma
SK-MEL-5 melanoma = test system: SK-MEL-5 melanoma
SK-OV-3 ovarian = test system: SK-OV-3 ovarian
SN12C renal = test system: SN12C renal
SNB-19 CNS = test system: SNB-19 CNS
SNB-75 CNS = test system: SNB-75 CNS
SW-620 colon = test system: SW-620 colon
T-47D breast = test system: T-47D breast
TK-10 renal = test system: TK-10 renal
U251 CNS = test system: U251 CNS
UACC-257 melanoma = test system: UACC-257 melanoma
UACC-62 melanoma = test system: UACC-62 melanoma
UO-31 renal = test system: UO-31 renal
RPMI-8226 leukemia = test system: RPMI-8226 leukemia
SR leukemia = test system: SR leukemia

Measured: TGI

O=c1[nH]c2ccccc2c(=O)c2cc3ccccc3cc12
25.8 µM: NCI-H522 lung
21.4 µM: U251 CNS
45.5 µM: CAKI-1 renal
45.2 µM: BT-549 breast
25.9 µM: HOP-62 NSCLC
37.3 µM: SNB-19 CNS
45.8 µM: NCI-H226 lung
19.4 µM: SNB-75 CNS
48.4 µM: A498 renal
22 µM: MDA-MB-231 breast
19.8 µM: HOP-92 NSCLC
70.9 µM: HS 578T breast
53.9 µM: SF-295 CNS
28.2 µM: SF-268 CNS
56.3 µM: RXF 393 renal
53.6 µM: NCI-H460 lung
21.9 µM: 786-0 renal
20.3 µM: HCT-116 colon
37.7 µM: OVCAR-8 ovarian
37 µM: TK-10 renal
30.6 µM: SK-OV-3 ovarian
47.8 µM: NCI-H23 lung
not listed: RPMI-8226 leukemia | SR leukemia
> 100 µM: all other assays above

CC(=O)OC(C(=O)NNC(=O)OC(C)(C)C)c1ccccc1 (stereo unspecified)
not listed: A498 renal | CCRF-CEM leukemia | HCT-116 colon | HL-60(TB) leukemia | LOX IMVI melanoma | OVCAR-4 ovarian | UACC-257 melanoma
> 100 µM: all other assays above

NC(C(=O)O)C(O)c1cnc[nH]1 (stereo unspecified)
not listed: HCC-2998 colon | UO-31 renal
> 100 µM: all other assays above
